Source: patent US9987299B2, “Methods of improving RNAi in well-differentiated airway epithelia” (University of Iowa Research Foundation, priority 2014, dated 2018)

How the values were obtained:
CFTR channel activity = assay: Transepithelial short-circuit current and conductance in HAE; format: cell-based, human; settings: control epithelia with or without PAF, or PAF and NC1 treated cells; sequential addition of agents
Human HPRT mRNA [1] = assay: HPRT mRNA silencing by DsiRNA-Transductin in well-differentiated HAE (RT-qPCR); format: cell-based
Description: FIG. 1. […] (a) Well-differentiated HAE cultures grown at the ALI were incubated in adding HPRT-targeting or control NC1 DsiRNA (250 nM) formulated with Transductin containing 0.1 or 0.01 mg LOS (HPRT-targeting DsiRNAs) or 0.1 mg LOS (NC1 DsiRNA). After 4 hours, the apical surface was rinsed and 24 hours later, target RNA levels quantified by RT-qPCR. All mRNA levels were normalized to NC1-treated samples. Mean levels were calculated from three biological replicates, each done in triplicate. ***p<0.001, **p<0.01 (Student's t-test). […] Samples were normalized to NC1-treated cells. ***p<0.001, **p<0.01 (Student's t-test). […] PAFRa was present throughout transfection in cells pre-treated with the reagent. Cells were harvested and RNA quantified 24 hrs later. Samples were normalized to NC1-treated cells. **p<0.01 (Student's t-test).
FIG. 3. Spiperone improves RNAi responses in DsiRNA transduced cells. HAE were pre-treated with various small molecules at the concentration indicated. The drugs were added to the apical surface and the basolateral media for 6 hours. Both surfaces were then washed and HPRT or NC1 DsiRNA formulated with Transductin added to the apical surface. The cells were washed after 4 hours, and RT-qPCR done on cell lysates harvested 24 hours later.
Human airway epithelial cells were obtained from trachea and bronchi of lungs removed for organ donation from non-CF individuals. Cells were isolated by enzyme digestion as previously described. Following enzymatic dispersion, cells were seeded at a density of 5×10^5 cells/cm^2 onto collagen-coated, 0.6 cm^2 semi permeable membrane filters (Millipore polycarbonate filters; Millipore Corp., Bedford, Mass.). The cells were maintained at 37° C. in a humidified atmosphere of 5% CO2 air. Twenty-four hours after plating, the apical media was removed and the cells were maintained at an air-liquid interface (ALI) to allow differentiation of the epithelium. The culture medium consisted of 1:1 ratio mix of Dulbecco's modified Eagle's medium (DMEM)/Ham's F12, 5% Ultroser G (Biosepra S A, Cedex, France), 100 U/ml penicillin, 100 μg/ml streptomycin, 1% nonessential amino acids and 0.12 U/ml insulin. Studies were performed on well-differentiated epithelia approximately 4 to 6 weeks after initiation of the ALI cultures conditions. HEp-2 cells were maintained in MEM substituted with 10% fetal bovine serum and 100 U/ml penicillin.
PAF was purchased from Sigma-Aldrich. The reagent was reconstituted in ethanol and used in the experiment at a concentration of 200 nM or as described in the figures. PAF was added to the transfection mixture at the apical surface as well as to the basolateral media. PAFRa (WEB 2086) was purchased from Sigma-Aldrich. […] The reagent was incubated with the cells throughout the transfection period.
All the small molecules tested were purchased from Sigma-Aldrich. The chemicals were reconstituted in appropriate solutions as recommended by the manufacturer. The epithelia were pre-treated with drugs for 6 hours at concentrations used in the CMAP study or noted in the published literature. Following drug treatment, the epithelia were transduced with DsiRNA as described above.
For well-differentiated airway epithelia, transfection was performed mostly according to the manufacturer's protocol. In all cases, the apical surface of epithelia was rinsed twice with PBS before adding the transfection mixture to the apical surface. DsiRNAs were used at a concentration of 250 nM. The mixture was left on the cells for 4 hours after which the medium was removed, the apical surface rinsed with PBS and the cells incubated further for 24 hours. For all experiments, a minimum of 3 biological replicates, in triplicate, were done.
Total RNA was isolated using SV96 RNA isolation kit (Promega, Madison, Wis.), according to manufacturer's protocol. […]

Human CFTR mRNA = assay: CFTR mRNA silencing by CFTR DsiRNA-Transductin in well-differentiated HAE (RT-qPCR); format: cell-based; settings: CFTR DsiRNA with simultaneous PAF treatment or spiperone pre-treatment
Description: (§1) FIG. 4. […] Alternatively, spiperone was applied apically and basolaterally to well-differentiated HAE for 6 hours, and then removed by rinsing before incubation for 4 hours with CFTR-targeting or NC1 DsiRNAs complexed with Transductin. In both cases, 24 hours after transfection, and RNA levels quantified by RT-qPCR. (b) A representative immunoblot from similarly treated wells, but cells were lysed and proteins visualized after immunoprecipitation with anti-CFTR antibody. Alpha-tubulin was used as a loading control. (c) Densitometry readings of immunoblots with results normalized to NC1 treated samples. In all cases, data are from 3 biological replicates and are mean±SD. ***p<0.001, **p<0.01 (Student's t-test).
For well-differentiated airway epithelia, transfection was performed mostly according to the manufacturer's protocol. […]
Total RNA was isolated using SV96 RNA isolation kit (Promega, Madison, Wis.), according to manufacturer's protocol. […] One-fifteenth of the cDNA was then amplified and analyzed by using the 5′-nuclease assay in a 7900 Real Time PCR System (Applied Biosystems, Foster city, CA) using primer-probe pairs reaction buffer and Immolase DNA polymerase (Bioline, Taunton, Mass.). […] Absolute quantification of an mRNA target sequence within an unknown sample was determined by reference to a standard curve. […]

CFTR protein = CFTR protein levels, immunoprecipitation and immunoblot with densitometry in HAE; format: cell-based, human
Description: as §1
HAE were rinsed with PBS and lysed in RIPA buffer (1% NP-40, 0.5% sodium deoxycholate, 0.1% SDS, 50 mM Tris, protease inhibitors [complete; mini, EDTA-free; Roche Biochemicals, Indianapolis, Ind.]) for 30 minutes at 4° C. The lysate were centrifuged in a table top centrifuge at 14,000 rpm for 20 minutes at 4° C. The supernatant was quantified by BCA protein assay kit (Pierce, Rockford, Ill.). Thirty micrograms of protein per lane was separated on a 10% Tris-HCL Criterion precast gel (Bio-Rad, Hercules, Calif.) for western blot analysis. The protein was transferred to Polyvinylidene difluoride membrane and then was probed with goat anti-RSV antibody purchased from Meridian Life Sciences (Memphis, Tenn.). The membrane was imaged, and then stripped with Restore Western Blot Stripping Buffer (Thermo Scientific, Lafayette, Colo.) for 15 minutes. The membrane was rinsed with Tris-buffered saline-Tween (TBS-T) and blocked in 5% bovine serum albumin (Research Products International Corp, Mt. Prospect, Ill.). The membrane was then reprobed with α-tubulin (Sigma-Aldrich).

[2] = reference [38]; cited from earlier work
Human HPRT mRNA [3] = settings: Transductin alone or combined with enhancers of macropinocytosis; reference [17]; cited from earlier work

Compound: O=C(CNc1ccc2ccccc2c1)N/N=C/c1cc(Br)c(O)c(Br)c1O [GlyH-101]
- cAMP-activated transepithelial short-circuit current (Isc and ΔIsc) and conductance (Gt) (CFTR channel activity): decreased both values

Compound: O=C(CCCN1CCC2(CC1)C(=O)NCN2c1ccccc1)c1ccc(F)cc1 [Spiperone]
- spiperone dose-response on silencing (Human HPRT mRNA [1]; increasing doses, 6 hours pretreatment (FIG. 9)): marginal increases in silencing with increasing doses
- silencing of HPRT mRNA levels (Human HPRT mRNA [1]; spiperone 10 μM pretreatment before DsiRNA transduction): 25%
- silencing of CFTR mRNA levels (Human CFTR mRNA): approximately 30%
- CFTR protein levels compared to controls (CFTR protein; PAF or spiperone and CFTR DsiRNA-Transductin, immunoprecipitation, western blot): reduced CFTR protein levels
- fully glycosylated CFTR band C (CFTR protein; densitometry, normalized to NC1 treated samples): significantly decreased

Compound: Cc1nnc2n1-c1sc(CCC(=O)N3CCOCC3)cc1C(c1ccccc1Cl)=NC2 [WEB2086]
- inhibition of HPRT silencing in cells transduced with LOS or PAF (Human HPRT mRNA [1]; 1 μM PAFRa): partially inhibited
- inhibition of HPRT silencing of LOS- or PAF-assisted transduction (Human HPRT mRNA [1]; 100 μM PAFRa, pre- or post-treatment): completely inhibited

Compound: CC(C)Cn1c(=O)n(C)c(=O)c2[nH]cnc21 [isobutylmethylxantine (IBMX), isobutylmethylxantine]
- cAMP-activated transepithelial short-circuit current (Isc and ΔIsc) and conductance (Gt) (CFTR channel activity): increased

Compound: CCCCCCCCCCCCCC(=O)O[C@@H]1[C@@H](C)[C@@]2(O)[C@@H](C=C(CO)C[C@]3(O)C(=O)C(C)=C[C@@H]23)[C@@H]2C(C)(C)[C@]12OC(C)=O [phorbol ester]
- gene silencing in well differentiated HAE with Transductin-DsiRNA plus phorbol ester (Human HPRT mRNA [1]; applicant's unpublished data): better silencing
- toxicity [2]: toxic and unsuitable for repeated applications or use in vivo

Compound: epidermal growth factor (NSDSECPLSHDGYCLHDGVCMYIEALDKYACNCVVGYIGERCQYRDLKWWELR; Epidermal growth factor; UniProt P01133 971-1023, looked up) [EGF, enhancer of macropinocytosis]
- gene silencing in well differentiated HAE with Transductin-DsiRNA, previously observed (Human HPRT mRNA [3]): very modest knockdown
